One assay has as its target EGFR L858R (Homo sapiens (Human), UniProt P00533, L858R). In words: Biochemical EGFR inhibition assay, EGFR L858R. The conditions noted are these: Caliper mobility shift; 1.0 mM ATP or ATP Km; read-out: Enz EGFR_L858R IC50.
A further assay addresses EGFR (d746-750) (Homo sapiens (Human), UniProt P00533, DEL746-750). In words: Biochemical EGFR inhibition assay, EGFR (d746-750). The conditions noted are these: Caliper mobility shift; 1.0 mM ATP or ATP Km; read-out: Enz EGFR_Exon19-del746-750 IC50.
Assay [1] addresses pEGFR (Tyr1068) in PC-9 cells (Ex19Del) (Homo sapiens (Human), UniProt P00533, DEL746-750). In words: PC-9 pEGFR AlphaLISA assay. It counts as cell-based. The conditions noted are these: 4 hours incubation, p-EGFR (Tyr1068) AlphaLISA, read-out: Ext pEGFR_PC-9 Ex19Del IC50. Put shortly: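 First, cells settled overnight in 10% FBS medium. Second, a 10-point, 4-fold series of test agents was applied for 4 h at 37° C. Third, lysates were probed with AlphaLISA acceptor and donor beads, incubated overnight in the dark. Last, IC50 was taken from the dose-response.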
(In general: Alpha assays give light when donor and acceptor beads are brought close together.)

pIC50: −log10 of the molar value.

pEGFR (Tyr1068) in PC-9 cells (Ex19Del), sequence (P00533 other isoform, or with tags, fused parts or gaps del 746-750): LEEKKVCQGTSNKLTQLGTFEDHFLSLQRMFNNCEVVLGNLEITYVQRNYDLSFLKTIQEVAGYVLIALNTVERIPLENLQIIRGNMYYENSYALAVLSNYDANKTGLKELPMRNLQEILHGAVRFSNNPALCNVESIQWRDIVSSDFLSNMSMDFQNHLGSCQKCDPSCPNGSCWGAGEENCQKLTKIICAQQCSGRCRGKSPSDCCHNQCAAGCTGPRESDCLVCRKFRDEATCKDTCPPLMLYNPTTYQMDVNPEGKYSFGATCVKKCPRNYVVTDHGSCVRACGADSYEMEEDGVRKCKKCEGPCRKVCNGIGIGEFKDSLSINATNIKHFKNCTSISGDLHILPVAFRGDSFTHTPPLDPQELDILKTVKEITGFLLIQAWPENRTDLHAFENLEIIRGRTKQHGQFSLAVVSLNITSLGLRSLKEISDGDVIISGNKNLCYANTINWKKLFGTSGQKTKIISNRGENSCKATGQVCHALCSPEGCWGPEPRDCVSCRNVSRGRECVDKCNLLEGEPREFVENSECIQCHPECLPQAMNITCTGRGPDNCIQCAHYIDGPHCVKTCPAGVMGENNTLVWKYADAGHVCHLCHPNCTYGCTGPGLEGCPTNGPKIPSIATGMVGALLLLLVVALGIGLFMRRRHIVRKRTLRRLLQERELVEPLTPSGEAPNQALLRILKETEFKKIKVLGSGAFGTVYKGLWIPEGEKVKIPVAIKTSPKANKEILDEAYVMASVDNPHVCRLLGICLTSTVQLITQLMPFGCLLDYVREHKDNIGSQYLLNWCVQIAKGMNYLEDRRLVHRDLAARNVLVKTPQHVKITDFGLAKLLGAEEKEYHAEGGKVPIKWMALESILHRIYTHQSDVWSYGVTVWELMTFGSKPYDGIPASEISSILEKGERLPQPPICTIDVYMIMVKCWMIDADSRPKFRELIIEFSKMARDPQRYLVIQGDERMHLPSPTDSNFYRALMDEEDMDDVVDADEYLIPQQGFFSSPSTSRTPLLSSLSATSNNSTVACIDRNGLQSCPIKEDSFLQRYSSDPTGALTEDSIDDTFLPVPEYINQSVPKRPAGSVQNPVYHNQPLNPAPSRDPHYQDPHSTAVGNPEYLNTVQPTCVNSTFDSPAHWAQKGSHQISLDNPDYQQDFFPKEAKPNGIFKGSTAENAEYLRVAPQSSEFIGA
EGFR (d746-750), sequence (P00533 other isoform, or with tags, fused parts or gaps del 1-694/del 746-750 limits assumed): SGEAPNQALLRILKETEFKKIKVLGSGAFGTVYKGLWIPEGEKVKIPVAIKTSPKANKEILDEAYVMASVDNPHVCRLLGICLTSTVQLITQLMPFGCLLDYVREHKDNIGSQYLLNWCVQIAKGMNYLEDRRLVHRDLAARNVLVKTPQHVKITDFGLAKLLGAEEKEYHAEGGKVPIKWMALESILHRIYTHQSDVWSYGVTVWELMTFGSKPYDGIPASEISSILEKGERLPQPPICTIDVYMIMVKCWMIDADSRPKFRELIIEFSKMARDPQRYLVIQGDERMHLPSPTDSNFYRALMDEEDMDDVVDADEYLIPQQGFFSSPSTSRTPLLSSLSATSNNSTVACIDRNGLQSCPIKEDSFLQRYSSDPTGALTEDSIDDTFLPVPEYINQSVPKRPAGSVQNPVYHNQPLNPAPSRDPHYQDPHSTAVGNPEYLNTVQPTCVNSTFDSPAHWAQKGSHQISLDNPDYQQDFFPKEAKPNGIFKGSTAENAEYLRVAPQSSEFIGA
EGFR L858R, sequence (P00533 25-1210 L858R): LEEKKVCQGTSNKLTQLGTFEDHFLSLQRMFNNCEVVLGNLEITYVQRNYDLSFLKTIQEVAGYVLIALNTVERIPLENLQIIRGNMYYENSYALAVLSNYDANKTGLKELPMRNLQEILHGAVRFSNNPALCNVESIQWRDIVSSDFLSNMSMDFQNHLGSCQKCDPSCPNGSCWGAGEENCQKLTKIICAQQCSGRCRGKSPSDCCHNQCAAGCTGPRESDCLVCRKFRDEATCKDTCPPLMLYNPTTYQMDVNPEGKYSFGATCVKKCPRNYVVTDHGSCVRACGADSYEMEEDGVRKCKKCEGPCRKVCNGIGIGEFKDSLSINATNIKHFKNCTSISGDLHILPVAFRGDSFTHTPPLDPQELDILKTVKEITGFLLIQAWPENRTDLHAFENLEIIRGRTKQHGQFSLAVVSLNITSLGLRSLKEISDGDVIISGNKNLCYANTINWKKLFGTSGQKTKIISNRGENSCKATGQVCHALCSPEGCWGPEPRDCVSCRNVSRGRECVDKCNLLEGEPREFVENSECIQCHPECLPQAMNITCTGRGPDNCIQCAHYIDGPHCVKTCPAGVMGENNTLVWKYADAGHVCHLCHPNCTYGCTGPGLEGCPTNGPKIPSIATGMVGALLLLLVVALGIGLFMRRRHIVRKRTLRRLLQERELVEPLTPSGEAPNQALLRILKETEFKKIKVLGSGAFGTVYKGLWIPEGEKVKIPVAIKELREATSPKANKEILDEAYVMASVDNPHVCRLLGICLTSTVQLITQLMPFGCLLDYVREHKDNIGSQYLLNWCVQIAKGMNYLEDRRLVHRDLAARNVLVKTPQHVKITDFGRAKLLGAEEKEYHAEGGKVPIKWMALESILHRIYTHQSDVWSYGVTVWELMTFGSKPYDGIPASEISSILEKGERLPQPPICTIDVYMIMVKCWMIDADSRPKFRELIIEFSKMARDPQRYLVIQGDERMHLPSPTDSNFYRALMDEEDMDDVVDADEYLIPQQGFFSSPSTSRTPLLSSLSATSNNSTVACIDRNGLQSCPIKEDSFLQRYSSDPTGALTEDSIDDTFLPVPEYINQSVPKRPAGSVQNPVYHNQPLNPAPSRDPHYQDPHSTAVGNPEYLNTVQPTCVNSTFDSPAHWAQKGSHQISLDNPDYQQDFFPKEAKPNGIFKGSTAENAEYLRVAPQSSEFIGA

Take `COc1cc2ncnc(-c3cn(C)nc3-c3ccccc3F)c2nc1NC(=O)C12CC(N(C)C)(C1)C2` [Example 403, 3-(dimethylamino)-N-(4-(3-(2-fluorophenyl)-1-methyl-1H-pyrazol-4-yl)-7-methoxypyrido[3,2-d]pyrimidin-6-yl)bicyclo[1.1.1]pentane-1-carboxamide]: the negative logarithm of the IC50 (pIC50) is 8.38 at EGFR L858R, 8.92 on EGFR (d746-750) and 8.30 in assay [1].

With `COc1cc2ncnc(-c3cn(C)nc3-c3ccccc3)c2nc1NC(=O)C12CC(N(C)C)(C1)C2` [Example 404, 3-(dimethylamino)-N-(7-methoxy-4-(1-methyl-3-phenyl-1H-pyrazol-4-yl)pyrido[3,2-d]pyrimidin-6-yl)bicyclo[1.1.1]pentane-1-carboxamide], the pIC50 on EGFR L858R is 8.23; on EGFR (d746-750), 9.15; in assay [1] it was 8.44.

Turning to `CCn1cc(-c2ncnc3cc(OC)c(NC(=O)C45CC(N(C)C)(C4)C5)nc23)c(-c2ccc(F)cc2)n1` [Example 405, 3-(dimethylamino)-N-(4-(1-ethyl-3-(4-fluorophenyl)-1H-pyrazol-4-yl)-7-methoxypyrido[3,2-d]pyrimidin-6-yl)bicyclo[1.1.1]pentane-1-carboxamide], the results for the pIC50 (on EGFR L858R; at EGFR (d746-750); in assay [1]) were 8.70, 9.10 and 8.77, respectively.

As to `COc1cc2ncnc(-c3cn(CCO)nc3-c3ccccc3)c2nc1NC(=O)C12CC(C1)C2` [Example 414, N-(4-(1-(2-hydroxyethyl)-3-phenyl-1H-pyrazol-4-yl)-7-methoxypyrido[3,2-d]pyrimidin-6-yl)bicyclo[1.1.1]pentane-1-carboxamide], the pIC50 on EGFR L858R was 8.68; at EGFR (d746-750) it was 8.89; in assay [1], 8.92.

Turning to `COc1cc2ncnc(-c3cn(CCO)nc3-c3ccccc3)c2nc1NC(=O)c1cnn(C(F)(F)F)c1` [Example 415, N-(4-(1-(2-hydroxyethyl)-3-phenyl-1H-pyrazol-4-yl)-7-methoxypyrido[3,2-d]pyrimidin-6-yl)-1-(trifluoromethyl)-1H-pyrazole-4-carboxamide], the pIC50 was 8.52 on EGFR L858R, 8.82 at EGFR (d746-750) and 8.11 in assay [1].

Take `COc1cc2ncnc(-c3cn(C)nc3-c3ccccc3)c2nc1NC(=O)[C@@H]1C[C@H]2C[C@H]2N1C` [Example 418, (1R,3S,5R)—N-(7-methoxy-4-(1-methyl-3-phenyl-1H-pyrazol-4-yl)pyrido[3,2-d]pyrimidin-6-yl)-2-methyl-2-azabicyclo[3.1.0]hexane-3-carboxamide]: the pIC50 is 8.74 at EGFR L858R, 9.22 at EGFR (d746-750) and 8.74 in assay [1].

Consider `COc1cc2ncnc(-c3cn(C)nc3-c3ccccc3)c2nc1NC(=O)[C@H]1C[C@H]2C[C@H]2N1C` [Example 419, (1R,3R,5R)—N-(7-methoxy-4-(1-methyl-3-phenyl-1H-pyrazol-4-yl)pyrido[3,2-d]pyrimidin-6-yl)-2-methyl-2-azabicyclo[3.1.0]hexane-3-carboxamide], for which the pIC50 on EGFR L858R was 8.80; on EGFR (d746-750), 9.00; in assay [1], 9.40.

Take `CCOc1cc2ncnc(-c3cn(C)nc3-c3ccccc3)c2nc1NC(=O)C12CC(N(C)C)(C1)C2` [Example 420, 3-(dimethylamino)-N-(7-ethoxy-4-(1-methyl-3-phenyl-1H-pyrazol-4-yl)pyrido[3,2-d]pyrimidin-6-yl)bicyclo[1.1.1]pentane-1-carboxamide]: the pIC50 at EGFR L858R is 7.52; on EGFR (d746-750) it was 8.77; in assay [1], 8.23.

Consider `COc1cc2ncnc(-c3cn(C)nc3-c3ccc(F)cc3F)c2nc1NC(=O)C12CC(C1)C2` [Example 421, N-(4-(3-(2,4-difluorophenyl)-1-methyl-1H-pyrazol-4-yl)-7-methoxypyrido[3,2-d]pyrimidin-6-yl)bicyclo[1.1.1]pentane-1-carboxamide], for which the pIC50 on EGFR L858R is 8.89; on EGFR (d746-750), 8.74; in assay [1] it was 8.72.

Take `COc1cc2ncnc(-c3cn(C)nc3-c3cccc(O)c3)c2nc1NC(=O)C1(C(F)(F)F)CC1` [Example 422, N-(4-(3-(3-hydroxyphenyl)-1-methyl-1H-pyrazol-4-yl)-7-methoxypyrido[3,2-d]pyrimidin-6-yl)-1-(trifluoromethyl)cyclopropane-1-carboxamide]: the pIC50 at EGFR L858R was 8.17; on EGFR (d746-750), 9.00; in assay [1], 8.39.

With `COc1cc2ncnc(-c3cn(C)nc3-c3ccccc3)c2nc1NC(=O)c1cnn(C(F)(F)F)c1C` [Example 427, N-(7-methoxy-4-(1-methyl-3-phenyl-1H-pyrazol-4-yl)pyrido[3,2-d]pyrimidin-6-yl)-5-methyl-1-(trifluoromethyl)-1H-pyrazole-4-carboxamide], the pIC50 at EGFR L858R is 8.70; on EGFR (d746-750), 9.15; in assay [1] it was 8.68.

Turning to `COc1cc2ncnc(-c3cn(C)nc3-c3ccccc3)c2nc1NC(=O)c1cn(C(F)(F)F)nc1C` [Example 428, N-(7-methoxy-4-(1-methyl-3-phenyl-1H-pyrazol-4-yl)pyrido[3,2-d]pyrimidin-6-yl)-3-methyl-1-(trifluoromethyl)-1H-pyrazole-4-carboxamide], the values for the pIC50 (on EGFR L858R; at EGFR (d746-750); in assay [1]) were 8.41, 8.92 and 8.11, respectively.

With `COc1cc2ncnc(-c3cn(C)nc3-c3ccccc3)c2nc1NC(=O)C1(F)CCN(C)C1` (stereo not drawn) [Example 433, 3-fluoro-N-(7-methoxy-4-(1-methyl-3-phenyl-1H-pyrazol-4-yl)pyrido[3,2-d]pyrimidin-6-yl)-1-methylpyrrolidine-3-carboxamide], the pIC50 at EGFR L858R was 7.60; at EGFR (d746-750) it was 8.80; in assay [1], 7.98.

For `CN(C)CCOc1cc2ncnc(-c3cn(C)nc3-c3ccccc3)c2nc1NC(=O)C1(C(F)(F)F)CC1` [Example 434, N-(7-(2-(dimethylamino)ethoxy)-4-(1-methyl-3-phenyl-1H-pyrazol-4-yl)pyrido[3,2-d]pyrimidin-6-yl)-1-(trifluoromethyl)cyclopropane-1-carboxamide], the pIC50 on EGFR L858R is 8.17; on EGFR (d746-750), 8.70; in assay [1], 8.46.

In the case of `CN(C)CCOc1cc2ncnc(-c3cn(C)nc3-c3ccccc3)c2nc1NC(=O)C12COCC1C2` (stereo not drawn) [Example 435, N-(7-(2-(dimethylamino)ethoxy)-4-(1-methyl-3-phenyl-1H-pyrazol-4-yl)pyrido[3,2-d]pyrimidin-6-yl)-3-oxabicyclo[3.1.0]hexane-1-carboxamide], the pIC50 is 7.59 at EGFR L858R, 8.51 on EGFR (d746-750) and 8.01 in assay [1].

In the case of `COc1cc2ncnc(-c3cn(C)nc3-c3ccccc3)c2nc1NC(=O)C1(OC)CC1` [Example 436, 1-methoxy-N-(7-methoxy-4-(1-methyl-3-phenyl-1H-pyrazol-4-yl)pyrido[3,2-d]pyrimidin-6-yl)cyclopropane-1-carboxamide], the pIC50 at EGFR L858R was 8.10; on EGFR (d746-750), 9.00; in assay [1] it was 8.34.

Consider `COc1cc2ncnc(-c3sc(C)nc3-c3ccccc3)c2nc1NC(=O)C1CC1` [Example 437, N-(7-methoxy-4-(2-methyl-4-phenylthiazol-5-yl)pyrido[3,2-d]pyrimidin-6-yl)cyclopropanecarboxamide], for which the values for the pIC50 (on EGFR L858R; on EGFR (d746-750); in assay [1]) were 8.85, 9.10 and 8.38, respectively.

For `CN1CCC(n2cc(-c3ccc4c(-c5cn(C)nc5-c5ccccc5)ncnc4c3)cn2)CC1` [Example 438, 4-(1-methyl-3-phenyl-1H-pyrazol-4-yl)-7-(1-(1-methylpiperidin-4-yl)-1H-pyrazol-4-yl)quinazoline], the figures for the pIC50 (at EGFR L858R; at EGFR (d746-750); in assay [1]) were 8.92, 9.10 and 9.52, respectively.

With `Cn1cc(-c2cc(F)c3c(-c4cn(C)nc4-c4ccccc4)ncnc3c2)cn1` [Example 439, 5-fluoro-7-(1-methyl-1H-pyrazol-4-yl)-4-(1-methyl-3-phenyl-1H-pyrazol-4-yl)quinazoline], the pIC50 on EGFR L858R is 9.15; at EGFR (d746-750), 9.40; in assay [1], 8.77.

Turning to `Cn1cc(-c2ccc3c(-c4c[nH]nc4-c4ccccc4)ncnc3c2)cn1` [Example 441, 7-(1-methyl-1H-pyrazol-4-yl)-4-(3-phenyl-1H-pyrazol-4-yl)quinazoline], the pIC50 at EGFR L858R was 8.96; on EGFR (d746-750), 9.15; in assay [1], 9.40.

Regarding `CN1CCC(n2cc(-c3ccc4c(-c5c[nH]nc5-c5ccccc5)ncnc4c3)cn2)CC1` [Example 442, 7-(1-(1-methylpiperidin-4-yl)-1H-pyrazol-4-yl)-4-(3-phenyl-1H-pyrazol-4-yl)quinazoline], the pIC50 at EGFR L858R is 8.85; on EGFR (d746-750), 8.96; in assay [1], 9.40.

On to `Cn1cc(-c2ccc3c(-c4c[nH]nc4-c4ccccc4F)ncnc3c2)cn1` [Example 443, 4-[3-(2-fluorophenyl)-1H-pyrazol-4-yl]-7-(1-methyl-1H-pyrazol-4-yl)quinazoline], for which the pIC50 at EGFR L858R is 9.10; at EGFR (d746-750), 9.40; in assay [1], 9.52.

For the compound `Cn1cc(-c2ccc3c(-c4c[nH]nc4-c4cc(F)ccc4F)ncnc3c2)cn1` [Example 444, 4-(3-(2,5-difluorophenyl)-1H-pyrazol-4-yl)-7-(1-methyl-1H-pyrazol-4-yl)quinazoline], the pIC50 is 9.30 on EGFR L858R, 9.40 at EGFR (d746-750) and 9.30 in assay [1].

One may read the pIC50 as the IC50 on a negative log10 scale, so that one unit is a factor of ten.

For the origin of these results see patent US20250236608A1, “EGFR INHIBITORS” (Blueprint Medicines Corporation, priority 2022, published 2025).
